According to patent US4383113A, “Agricultural sulfonamides” (E. I. Du Pont de Nemours and Company, priority 1981, dated 1983):

Tests used:
milkweed vine = assay: Test I perennial foliage spray; type: in vivo, Morrenia odorata
Text: (§1) Five-inch in diameter plastic pots were filled with a 50-50 mixture of Fallsington silt loam soil and sand and seeds of the following planted (one plant species per pot): milkweed vine (Morrenia odorata), plantain (Plantago spp.), burdock (Arctium minus), field bindweed (Convolvulus arvensis), dandelion (Taraxacum officinale), horsenettle (Solanum carolinense), bermudagrass (Cynodon dactylon), quackgrass (Agropyron repens), dallisgrass (Paspalum dilatatum) and johnsongrass (Sorghum halepense). The pots were placed in the greenhouse and the plants grown for several weeks.
(§2) The compound evaluated was diluted with a non-phytotoxic solvent and sprayed on the plant foliage. Untreated and solvent controls were included for comparison. One and eight weeks after treatment, a visual rating of the compound's effects on plant growth were made.

plantain = assay: Test I perennial foliage spray; type: in vivo, Plantago spp.
Text: as §1, §2

burdock = assay: Test I perennial foliage spray; type: in vivo, Arctium minus
Text: as §1, §2

field bindweed = assay: Test I perennial foliage spray; type: in vivo, Convolvulus arvensis
Text: as §1, §2

dandelion = assay: Test I perennial foliage spray; type: in vivo, Taraxacum officinale
Text: as §1, §2

horsenettle = assay: Test I perennial foliage spray; type: in vivo, Solanum carolinense
Text: as §1, §2

bermudagrass = assay: Test I perennial foliage spray; type: in vivo, Cynodon dactylon; conditions: 1 week
Text: as §1, §2

quackgrass = assay: Test I perennial foliage spray; type: in vivo, Agropyron repens
Text: as §1, §2

dallisgrass = assay: Test I perennial foliage spray; type: in vivo, Paspalum dilatatum
Text: as §1, §2

johnsongrass = assay: Test I perennial foliage spray; type: in vivo, Sorghum halepense
Text: as §1, §2

alfalfa [1] = assay: Test D pre-emergence on soil; type: in vivo; conditions: 1/8 kg/ha
Text: (§3) The high herbicidal activity of one of the compounds from within the scope of the invention is evident from the results obtained in this test. The experiment concerned pre-emergence applications on soil. The containers used were 25 cm diameter plastic pots filled with Fallsington silt loam. One set of pots was planted to weeds the seeds of which were uniformly mixed with the top 1.2 cm layer of soil. The species selected were: johnsongrass (Sorghum halepense), barnyardgrass (Echinochloa crusgalli), crabgrass (Digitaria sanguinalis), giant foxtail (Setaria faberii), velvetleaf (Abutilon theophrasti), jimsonweed (Datura stramonium), mustard (Brassica arvensis) and pigweed (Amaranthus retroflexus). Another set of pots was planted to the following crops with from one to four species per pot: corn (planting depth 3.7 cm), cotton, soybeans, sunflower, Clinton oats, wheat, Black Valentine beans, rice, sorghum, peas, flax and peanuts (all at 2.5 cm depth), cucumbers, cabbage, alfalfa, safflower, sugarbeets, tomato, spinach, barley and Kentucky bluegrass (all at 1.2 cm depth). Immediately after planting, the test chemical was applied to the soil surfaces dissolved in a non-phytotoxic solvent. One pot from the weed phase and one of each of the crop species were left untreated for the purpose of comparison. The treated and untreated pots were promptly watered with approximately 4 mm of simulated rainfall and then held in a greenhouse for several weeds. Visual weed and crop response ratings were made 28 days after treatment utilizing the rating system as described above for test procedure A. The data are given in Table XV.

cabbage = assay: Test D pre-emergence on soil; type: in vivo; conditions: 1/8 kg/ha
Text: as §3

corn = assay: Test D pre-emergence on soil; type: in vivo; conditions: 1/8 kg/ha
Text: as §3

grasses = assay: Test D pre-emergence on soil; type: in vivo; conditions: 1/64 kg/ha
Text: as §3

sorghum = assay: Test D pre-emergence on soil; type: in vivo; conditions: 1/8 kg/ha
Text: as §3

spinach = assay: Test D pre-emergence on soil; type: in vivo; conditions: 1/8 kg/ha
Text: as §3

wheat [2] = assay: Test D pre-emergence on soil; type: in vivo; conditions: 1/8 kg/ha
Text: as §3

sugarbeet = assay: Test D pre-emergence on soil; type: in vivo, sugarbeets; conditions: 1/8 kg/ha
Text: as §3, with “The treated and untreated pots were promptly watered with approximately 4 mm of simulated rainfall and then held in a greenhouse for several weeds. Visual weed and crop response ratings were made 28 days after treatment utilizing the rating system as described above for test procedure A. The data are given in Table XV.” left out

pea = assay: Test D pre-emergence on soil; type: in vivo, peas; conditions: 1/8 kg/ha
Text: as §3, with “The treated and untreated pots were promptly watered with approximately 4 mm of simulated rainfall and then held in a greenhouse for several weeds. Visual weed and crop response ratings were made 28 days after treatment utilizing the rating system as described above for test procedure A. The data are given in Table XV.” left out

Ky. bluegrass = assay: Test D pre-emergence on soil; type: in vivo, Kentucky bluegrass; conditions: 1/8 kg/ha
Text: as §3, with “The treated and untreated pots were promptly watered with approximately 4 mm of simulated rainfall and then held in a greenhouse for several weeds. Visual weed and crop response ratings were made 28 days after treatment utilizing the rating system as described above for test procedure A. The data are given in Table XV.” left out

mustard [3] = assay: Test E pre-emergence; type: in vivo, Brassica arvensis
Text: (§4) The containers used were 25 cm diameter plastic pots filled with fertilized and limed Fallsington silt loam. Plantings of the following weed species were made twice, at a 10-day interval: mustard (Brassica arvensis), cocklebur (Xanthium spp.), morningglory (Ipomoea hederacea), cassia (Cassia tora), velvetleaf (Abutilon theophrasti), alfalfa (used as an indicator species), kochia (Kochia scoparia), sesbania (Sesbania exaltata), Russian thistle (Salsola kali), jimsonweed (Datura stramonium),and nutsedge (Cyperus rotundus). In addition, wheat and barley were planted in separate 15 cm diameter plastic pots filled with the same soil at the time of the early planting only. All plantings were treated with the test chemicals dissolved in a non-phytotoxic solvent immediately following completion of the second planting operation. At this time, the wheat was around 15-17.5 cm tall and the barley 12.5 to 15 cm tall, both in the 2-leaf stage of growth. The weed species of the earliest planting date were from 2.5 to 12.5 cm tall. The rates of application selected were 0.004, 0.007, 0.015 and 0.030 kg/ha for the weed phase and 0.12, 0.25 and 0.50 kg/ha for wheat and barley. The post-emergence part of this test was visually rated for plant response 21 days after treatment, and the pre-emergence part 28 days after treatment.

morningglory = assay: Test E pre-emergence; type: in vivo, Ipomoea hederacea; conditions: 1/32 kg/ha
Text: as §4

alfalfa [4] = assay: Test E pre-emergence; type: in vivo
Text: as §4

sesbania = assay: Test E pre-emergence; type: in vivo, Sesbania exaltata; conditions: 1/64 kg/ha
Text: as §4

kochia = assay: Test E pre-emergence; type: in vivo, Kochia scoparia
Text: as §4

Russian thistle = assay: Test E pre-emergence; type: in vivo, Salsola kali
Text: as §4

nutsedge [5] = assay: Test E pre-emergence; type: in vivo, Cyperus rotundus
Text: as §4

mustard [6] = assay: Test E post-emergence; type: in vivo, Brassica arvensis
Text: as §4

cocklebur = assay: Test E post-emergence; type: in vivo, Xanthium spp.
Text: as §4

nutsedge [7] = assay: Test E post-emergence; type: in vivo, Cyperus rotundus
Text: as §4

barley = assay: Test E post-emergence; type: in vivo; conditions: 1/2 kg/ha
Text: as §4

purple nutsedge [8] = assay: Test G surface spray; type: in vivo, Cyperus rotundus; conditions: high OM
Text: (§5) Purple nutsedge tubers (Cyperus rotundus, L.) were planted about 2 cm deep in Fallsington silt loam (about 1% organic matter from Delaware) and in Flanagan loam (about 4% organic matter) from Illinois. Five tubers were planted in each 10 cm diameter plastic pot. Treatments recorded in Table XVII were applied in three different ways, i.e., soil surface spray, tuber/soil spray and soil incorporated. In surface sprays, the material was sprayed on the firmed soil surface after planting, but before nutsedge emergence. In tuber/soil sprays, the material was sprayed on exposed tubers and subtending soil before the tubers were covered with untreated soil. Soil incorporated treatments were mixed in the covering soil.
(§6) Immediately after treating, the treated pots were misted with about 0.3 cm of water over a 90 minute period and placed in the greenhouse.

purple nutsedge [9] = assay: Test G soil incorporated; type: in vivo, Cyperus rotundus; conditions: .032 kg/ha, low OM
Text: as §5, §6

wheat [10] = assay: Test E post-emergence; type: in vivo; conditions: 1/2 kg/ha
Text: as §4

COC(=O)c1ccccc1S(=O)(=O)NC(=O)Nc1nc(C)cc(C)n1 [drawing 611] was tested, and the plant response rating (milkweed vine; 1 week, 1/4 kg/ha) was 0, the plant response rating (milkweed vine; 1 week, 1/8 kg/ha) was 0 and the plant response rating (milkweed vine; 8 weeks, 1/4 kg/ha) was 10C. For the same compound, the plant response rating (milkweed vine; 8 weeks, 1/8 kg/ha) was 10C, the plant response rating (plantain; 1 week, 1/4 kg/ha) was 0 and the plant response rating (plantain; 1 week, 1/8 kg/ha) was 0. The plant response rating (plantain; 8 weeks, 1/4 kg/ha) was 10C, the plant response rating (plantain; 8 weeks, 1/8 kg/ha) was 10C and the plant response rating (burdock; 1 week, 1/4 kg/ha) was 0. For the same compound, the plant response rating (burdock; 1 week, 1/8 kg/ha) was 0, the plant response rating (burdock; 8 weeks, 1/4 kg/ha) was 10C and the plant response rating (burdock; 8 weeks, 1/8 kg/ha) was 4C. For the same compound, the plant response rating (field bindweed; 1 week, 1/4 kg/ha) was 2C, the plant response rating (field bindweed; 1 week, 1/8 kg/ha) was 0 and the plant response rating (field bindweed; 8 weeks, 1/4 kg/ha) was 8C. It also gave a plant response rating (field bindweed; 8 weeks, 1/8 kg/ha) of 7C, a plant response rating (dandelion; 1 week, 1/4 kg/ha) of 0 and a plant response rating (dandelion; 1 week, 1/8 kg/ha) of 0. It also gave a plant response rating (dandelion; 8 weeks, 1/4 kg/ha) of 10C, a plant response rating (dandelion; 8 weeks, 1/8 kg/ha) of 10C and a plant response rating (horsenettle; 1 week, 1/4 kg/ha) of 1C. The plant response rating (horsenettle; 1 week, 1/8 kg/ha) was 0, the plant response rating (horsenettle; 8 weeks, 1/4 kg/ha) was 10C and the plant response rating (horsenettle; 8 weeks, 1/8 kg/ha) was 5C. The plant response rating (bermudagrass; 1/4 kg/ha) was 6C, the plant response rating (bermudagrass; 1/8 kg/ha) was 5C and the plant response rating (quackgrass; 1 week, 1/4 kg/ha) was 7C. The plant response rating (quackgrass; 1 week, 1/8 kg/ha) was 6C, the plant response rating (quackgrass; 8 weeks, 1/4 kg/ha) was 10C and the plant response rating (quackgrass; 8 weeks, 1/8 kg/ha) was 10C. It also gave a plant response rating (dallisgrass; 1 week, 1/4 kg/ha) of 6C, a plant response rating (dallisgrass; 1 week, 1/8 kg/ha) of 6C and a plant response rating (dallisgrass; 8 weeks, 1/4 kg/ha) of 10C. For the same compound, the plant response rating (johnsongrass; 1 week, 1/4 kg/ha) was 9C, the plant response rating (johnsongrass; 1 week, 1/8 kg/ha) was 8C and the plant response rating (johnsongrass; 8 weeks, 1/4 kg/ha) was 10C. For the same compound, the plant response rating (johnsongrass; 8 weeks, 1/8 kg/ha) was 10C.

In the case of COC(=O)c1ccccc1S(=O)(=O)NC(=O)Nc1nc(OC)cc(OC)n1 [drawing 586], the response rating (alfalfa [1]) is reported as 10C, the response rating (cabbage) is reported as 10C and the response rating (corn) is reported as 10C. For the same compound, the response rating (grasses) was 6G, the response rating (sorghum) was 10C and the response rating (spinach) was 10C. It also gave a response rating (wheat [2]) of 10C, a response rating (sugarbeet) of 10C and a response rating (pea) of 10C. For the same compound, the response rating (Ky. bluegrass) was 10C.

Compound COc1nc(NC(=O)NS(=O)(=O)c2ccccc2C(=O)OC(C)C)nc(OC)n1 [drawing 587] has a response rating (mustard [3]; 1/32 kg/ha) of 10C, a response rating (mustard [3]; 1/64 kg/ha) of 10C and a response rating (mustard [3]; 1/128 kg/ha) of 10C. It also gave a response rating (morningglory) of 8G, a response rating (alfalfa [4]; 1/64 kg/ha) of 5G and a response rating (alfalfa [4]; 1/256 kg/ha) of 5G. The response rating (sesbania) was 8G, the response rating (kochia; 1/32 kg/ha) was 10C and the response rating (kochia; 1/64 kg/ha) was 10C. The response rating (kochia; 1/128 kg/ha) was 10C, the response rating (Russian thistle; 1/32 kg/ha) was 9C and the response rating (Russian thistle; 1/64 kg/ha) was 7C. The response rating (Russian thistle; 1/128 kg/ha) was 7C, the response rating (Russian thistle; 1/256 kg/ha) was 5C and the response rating (nutsedge [5]; 1/64 kg/ha) was 9G. It also gave a response rating (nutsedge [5]; 1/128 kg/ha) of 8G and a response rating (nutsedge [5]; 1/256 kg/ha) of 7G.

Work on COc1nc(C)nc(NC(=O)NS(=O)(=O)c2ccccc2C(=O)OC(C)C)n1 [drawing 590] yielded a response rating (mustard [6]; 1/32 kg/ha) of 10C, a response rating (mustard [6]; 1/64 kg/ha) of 10C and a response rating (mustard [6]; 1/128 kg/ha) of 10C. It also gave a response rating (mustard [6]; 1/256 kg/ha) of 10C, a response rating (cocklebur; 1/32 kg/ha) of 10C and a response rating (cocklebur; 1/64 kg/ha) of 10C. It also gave a response rating (cocklebur; 1/128 kg/ha) of 10C, a response rating (cocklebur; 1/256 kg/ha) of 10C and a response rating (nutsedge [7]; 1/32 kg/ha) of 10C. The response rating (nutsedge [7]; 1/256 kg/ha) was 3G and the response rating (barley) was 5G.

For COC(=O)c1ccccc1S(=O)(=O)NC(=O)Nc1nc(OC)cc(OC)n1 [drawing 607], the “response rating after 4 weeks” value (purple nutsedge [8]; .008 kg/ha) was 0, the “response rating after 4 weeks” value (purple nutsedge [8]; .032 kg/ha) was 10C and the “response rating after 4 weeks” value (purple nutsedge [9]) was 10C.

With COc1nc(NC(=O)NS(=O)(=O)c2ccccc2C(=O)OC(C)C)nc(OC)n1 [drawing 589] the response rating (mustard [6]; 1/32 kg/ha) was 10C, the response rating (mustard [6]; 1/64 kg/ha) was 10C and the response rating (mustard [6]; 1/128 kg/ha) was 10C. For the same compound, the response rating (mustard [6]; 1/256 kg/ha) was 10C, the response rating (cocklebur; 1/32 kg/ha) was 10C and the response rating (cocklebur; 1/64 kg/ha) was 10C. The response rating (cocklebur; 1/128 kg/ha) was 10C, the response rating (cocklebur; 1/256 kg/ha) was 10C and the response rating (nutsedge [7]; 1/32 kg/ha) was 10G. It also gave a response rating (wheat [10]) of 2G.
